In patent US20260317340A1, “COMPOUNDS, COMPOSITIONS, AND METHODS OF TREATING DISORDERS” (Chengdu Anticancer Bioscience, Ltd., priority 2023, published 2026) one finds minimal effective concentration and TGI % data, which are given here for one compound.

Like-named read-outs stand apart in the source and are kept apart here.

The subject of assay [1] is RPE-Neo or RPE-MYC or RPE-MYC expressing an EGFP-Histone 2B fusion protein. The assay is described as follows: Phenotypic screening assay: arrest in mitosis, change in DNA content (polyploidy), cell death. The following applies: 20 nM to 20 μM, 24, 48 or 72 hours. It counts as cell-based. The gist of the method: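 Compound exposure from 20 nM to 20 μM in RPE lines (Neo, MYC, or MYC with EGFP-histone H2B), seeded 18-24 h earlier; imaging at 24, 48 or 72 h read mitotic arrest or altered DNA content, with MTT for proliferation. Results reported as A–D range categories.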

For another assay, the system named is RPE-Neo or RPE-MYC cells. Nature of the assay: MTT assay of cellular proliferation (proliferative arrest). Conditions: read-out: Min. Effective conc. for Proliferative arrest (>50%). The format is cell-based. Background: Tetrazolium assays rely on reduction of a dye to a coloured formazan, in cell work by metabolically active cells.
The subject of assay [2] is human cancer cell line NCI-H460. Nature of the assay: Tumor growth inhibition, NCI-H460 tumors in BAL B/c nude mice. The format is in vivo, human tumor cell line in BAL B/c nude mice. The following applies: oral, 8 mg/kg, 4 days-on, 3 days-off, 20 days, 30% PEG300. As to the method:
(§1) Six- to seven-week-old female BAL B/c nude mice were used in the human cancer cell line NCI-H460, which was derived from a lung cancer patient. Six- to seven-week-old female BAL B/c mice were used in the mouse […] cell line CT26 allograft models. 100 μL cell suspensions containing one million cells with […] (Corning, Cat. No. 354254) were implanted subcutaneously into the right flank of mice. Mice were monitored daily for well-being and weighed twice weekly. Caliper measurements of tumor sizes began when tumors became visible. Tumor volume (TV) was calculated by measuring two perpendicular diameters using the following formula: (L×W2)/2 in which L and W refer to the length and width of a tumor, respectively. When tumors reached an average size of 100 mm3, mice were first ranked according to tumor size and divided into “n” cohorts with X mice in each cohort. Each cohort was then sorted into 1 to X groups according to the random numbers size order generated by the RAND 0)function in Excel. In this way, the mice were randomized into X groups (n=4-6). Then the mice were orally administrated with vehicle (30% PEG 300) or indicated compounds at a dose volume of 5 mL/kg in a double-blinded manner. Oral administration was chosen because this is the intended route of use in the clinic. In all cases, no tumor measurement data or animals were excluded from the data analysis. Percentage of tumor growth inhibition (TGI) was calculated using the following formula: % TGI=average 100×[1−(final TV−initial TV of treatment group)/(final TV−initial TV of control group)]. As set forth in table 3 below, an values of greater than or equal to 35% and less than or equal to 45% […] is marked “C”; a value greater than 45% and less than or equal to 55% is marked “B”; a value greater than 55% and less than or equal to 70% is marked “A”; and […]

Assay [3] can be described thus: Tumor growth inhibition, CT26 allograft in BAL B/c mice. The following applies: oral, 8 mg/kg, 3 days-on, 4 days-off, 20 days, 30% PEG300. The format is in vivo, mouse tumor cell line in BAL B/c mice. How it is done:
as §1

Turning to `COc1ccc(CN2C(=O)CC(c3ncc(C)o3)=Cc3ccc(-c4cnn(CC(C)(C)O)c4)cc32)cc1` [Compound 37, 8-(1-(2-hydroxy-2-methylpropyl)-1H-pyrazol-4-yl)-1-(4-methoxybenzyl)-4-(5-methyloxazol-2-yl)-1,3-dihydro-2H-benzo[b]azepin-2-one], the minimal effective concentration in assay [1] (read-out: Min. Effective conc. for Along with Cell Death) is 0.001 to 1 µM; in assay [1] (≥5%, read-out: Min. Effective conc. for Mitotic Arrest (≥5%)) it was 0.001 to 1 µM; in assay [1] (≥5%, read-out: Min. Effective conc. for Polyploidy (≥5%)) it was 0.001 to 1 µM; in the assay on RPE-Neo or RPE-MYC cells it was 0.001 to 1 µM. The TGI % result was “A (greater than 55% and less than or equal to 70%)” in assay [2]; “B (greater than 45% and less than or equal to 55%)” in assay [3].
